US7541352B2, “Compounds for the treatment of hepatitis C” (Bristol-Myers Squibb Company, priority 2007, dated 2009)
Where two headings read alike, the source gives them in different places.

Columns and labels:
[1] = biological target: T1, HCV NS5B RdRp genotype 1b (Hepatitis C virus genotype 1b, UniProt Q9WMX2); assay: Modified HCV NS5B RdRp enzyme assay (preincubation protocol); type: biochemical; settings: HCV NS5B RdRp; determined using the preincubation protocol; read-out: IC50
T1 construct: The protein was expressed with an 18 amino acid C-terminal truncation to enhance the solubility; made in house; host or cells: E. coli BL21(DE3), pET21a
T1 sequence (Q9WMX2 2420-2992): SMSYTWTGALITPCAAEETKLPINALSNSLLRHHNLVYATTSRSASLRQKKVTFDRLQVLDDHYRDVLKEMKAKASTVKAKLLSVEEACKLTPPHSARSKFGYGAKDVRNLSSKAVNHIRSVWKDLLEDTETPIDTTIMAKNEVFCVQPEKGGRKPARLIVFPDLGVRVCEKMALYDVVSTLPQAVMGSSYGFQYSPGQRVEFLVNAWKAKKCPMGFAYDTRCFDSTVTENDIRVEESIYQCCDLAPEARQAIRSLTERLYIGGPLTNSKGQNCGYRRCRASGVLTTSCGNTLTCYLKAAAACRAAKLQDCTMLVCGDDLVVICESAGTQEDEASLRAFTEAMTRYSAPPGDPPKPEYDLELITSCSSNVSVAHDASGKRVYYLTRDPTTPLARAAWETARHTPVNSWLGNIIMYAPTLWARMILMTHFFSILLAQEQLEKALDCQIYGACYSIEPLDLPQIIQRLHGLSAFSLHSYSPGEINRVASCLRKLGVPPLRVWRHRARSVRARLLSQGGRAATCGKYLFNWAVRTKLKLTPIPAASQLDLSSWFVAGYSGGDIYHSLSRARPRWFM
Description: HCV NS5B RdRp cloning, expression, and purification. The cDNA encoding the NS5B protein of HCV, genotype 1b, was cloned into the pET21a expression vector. The protein was expressed with an 18 amino acid C-terminal truncation to enhance the solubility. The E. coli competent cell line BL21(DE3) was used for expression of the protein. Cultures were grown at 37° C. for ˜4 hours until the cultures reached an optical density of 2.0 at 600 nm. The cultures were cooled to 20° C. and induced with 1 mM IPTG. Fresh ampicillin was added to a final concentration of 50 μg/ml and the cells were grown overnight at 20° C.
Cell pellets (3 L) were lysed for purification to yield 15-24 mgs of purified NS5B. The lysis buffer consisted of 20 mM Tris-HCl, pH 7.4, 500 mM NaCl, 0.5% triton X-100, 1 mM DTT, 1 mM EDTA, 20% glycerol, 0.5 mg/ml lysozyme, 10 mM MgCl2, 15 ug/ml deoxyribonuclease I, and Complete TM protease inhibitor tablets (Roche). After addition of the lysis buffer, frozen cell pellets were resuspended using a tissue homogenizer. To reduce the viscosity of the sample, aliquots of the lysate were sonicated on ice using a microtip attached to a Branson sonicator. The sonicated lysate was centrifuged at 100,000×g for 1 hr at 4° C. and filtered through a 0.2 μm filter unit (Corning).
The protein was purified using two sequential chromatography steps: Heparin sepharose CL-6B and polyu sepharose 4B (Pharmacia). The chromatography buffers were identical to the lysis buffer but contained no lysozyme, deoxyribonuclease I, MgCl2 or protease inhibitor and the NaCl concentration of the buffer was adjusted according to the requirements for charging the protein onto the column. Each column was eluted with a NaCl gradient which varied in length from 5-50 column volumes depending on the column type. After the final chromatography step, the resulting purity of the enzyme is >90% based on SDS-PAGE analysis. The enzyme was aliquoted and stored at −80° C.
Standard HCV NS5B RdRp enzyme assay. HCV RdRp genotype 1b assays were run in a final volume of 60 μl in 96 well plates (Corning 3600). The assay buffer is composed of 20 mM Hepes, pH 7.5, 2.5 mM KCl, 2.5 mM MgCl2, 1 mM DTT, 1.6 U RNAse inhibitor (Promega N2515), 0.01 mg/ml BSA (Sigma B6917), and 2% glycerol. All compounds were serially diluted (3-fold) in DMSO and diluted further in water such that the final concentration of DMSO in the assay was 2%. HCV RdRp genotype 1b enzyme was used at a final concentration of 28 nM. A polyA template was used at 6 nM, and a biotinylated oligo-dT 12 primer was used at 180 nM final concentration. Template was obtained commercially (Amersham 27-4110). Biotinylated primer was prepared by Sigma Genosys. 3H-UTP was used at 0.6 μCi (0.29 μM total UTP). Reactions were initiated by the addition of enzyme, incubated at 30° C. for 60 min, and stopped by adding 25 μl of 50 mM EDTA containing SPA beads (4 μg/μl, Amersham RPNQ 0007). Plates were read on a Packard Top Count NXT after >1 hr incubation at room temperature.
Modified HCV NS5B RdRp enzyme assay. A modified enzyme assay was performed essentially as described for the standard enzyme assay except for the following: The biotinylated oligo dT12 primer was precaptured on streptavidin-coated SPA beads by mixing primer and beads in assay buffer and incubating at room temperature for one hour. Unbound primer was removed after centrifugation. The primer-bound beads were resuspended in 20 mM Hepes buffer, pH 7.5 and used in the assay at final concentrations of 20 nM primer and 0.67 μg/μl beads. Order of addition in the assay: enzyme (1.75 nM) was added to diluted compound followed by the addition of a mixture of template (0.36 nM), 3H-UTP (0.6 μCi, 0.29 μM), and primer-bound beads, to initiate the reaction; concentrations given are final. Reactions were allowed to proceed for 4 hours at 30° C.
IC50 values for compounds were determined using seven different [I]. […]

[2] = system: HCV replicon cells; assay: HCV replicon FRET assay; type: cell-based; settings: HCV replicon cells, determined using the FRET assay, read-out: EC50
Description: FRET Assay Preparation. The HCV FRET screening assay was performed in 96-well cell culture plates. The FRET peptide (Anaspec, Inc.) (Taliani et al., Anal. Biochem. 1996, 240, 60-67) contains a fluorescence donor, EDANS, near one end of the peptide and an acceptor, DABCYL, near the other end. The fluorescence of the peptide is quenched by […] resonance energy transfer (RET) between the donor and the acceptor, but as the NS3 protease cleaves the peptide the products are released from RET quenching and the fluorescence of the donor becomes apparent. The assay reagent was made as follows: 5× cell Luciferase cell culture lysis reagent from Promega (#E153A) diluted to 1× with dH2O, NaCl added to 150 mM final, the FRET peptide diluted to 20 μM final from a 2 mM stock.
To prepare plates, HCV replicon cells, with or without a Renilla luciferase reporter gene, were trypsinized and plated in a 96-well plate with titrated test compounds added in columns 3 through 12; columns 1 and 2 contained a control compound (HCV control inhibitor), and the bottom row contained cells with DMSO only. The plates were then placed in a CO2 incubator at 37° C.
Assays. Subsequent to addition of the test compounds described above (FRET Assay Preparation), at various times the plate was removed and Alamar blue solution (Trek Diagnostics, #00-100) was added to measure cellular toxicity. After reading in a Cytoflour 4000 instrument (PE Biosystems), plates were rinsed with PBS and then used for FRET assay by the addition of 30 ul of the FRET peptide assay reagent described above (FRET Assay Preparation) per well. The plate was then placed into the Cytoflour 4000 instrument which had been set to 340 excite/490 emission, automatic mode for up to 20 cycles and the plate read in a kinetic mode. Typically, the signal to noise using an endpoint analysis after the reads was at least three-fold. Alternatively, after Alamar blue reading, plates were rinsed with PBS, then used for luciferase assay using the Promega Dual-Glo Luciferase Assay System or the Promega EnduRen Live Cell Substrate assay.
Compound analysis was performed by quantification of the relative HCV replicon inhibition and the relative cytotoxicity values. To calculate cytoxicity values, the average Alamar Blue fluorescence signals from the control wells were set as 100% non-toxic. The individual signals in each of the compound test wells were then divided by the average control signal and multiplied by 100% to determine […]. To calculate the HCV replicon inhibition values, an average background value was obtained from the two wells containing the highest amount of HCV control inhibitor at the end of the assay period. These numbers were similar to those obtained from naïve Huh-7 cells. The background numbers were then subtracted from the average signal obtained from the control wells and this number was used as 100% activity. The individual signals in each of the compound test wells were then divided by the averaged control values after background subtraction and multiplied by 100% to determine percent activity. EC50 values were calculated as the concentration which caused a 50% reduction in FRET or luciferase activity. The two numbers generated for the compound plate, percent cytoxicity and percent activity, were used to determine compounds of interest for further analysis.

SMILES	IC50 [1] [nM]	EC50 ([2]; Hepatitis C virus) [nM]	EC50 [2] [nM]
COc1ccc2c(c1)C1CC1(NC(=O)C(=O)N1CCCC1)Cn1c-2c(C2CCCCC2)c2ccc(C(=O)NS(=O)(=O)N(C)C)cc21 (centres unmarked) [drawing 32]	1 to 500	1 to 500	–
COc1ccc2c(c1)[C@@H]1C[C@]1(NC(=O)C(=O)N1C[C@@H](C)O[C@@H](C)C1)Cn1c-2c(C2CCCCC2)c2ccc(C(=O)NS(=O)(=O)N(C)C)cc21 [drawing 34]	1 to 500	1 to 500	–
COc1ccc2c(c1)[C@@H]1C[C@]1(NC(=O)C(=O)N(C)C)Cn1c-2c(C2CCCCC2)c2ccc(C(=O)NS(=O)(=O)N(C)C)cc21 [drawing 35]	1 to 500	1 to 500	–
COc1ccc2c(c1)C1CC1(NC(=O)C(=O)N1CCCC1)Cn1c-2c(C2CCCCC2)c2ccc(C(=O)NS(=O)(=O)N(C)C)cc21 (centres unmarked) [drawing 39]	1 to 500	–	1 to 500
COc1ccc2c(c1)[C@@H]1C[C@]1(NC(=O)C(=O)N(C)C)Cn1c-2c(C2CCCCC2)c2ccc(C(=O)NS(=O)(=O)N(C)C)cc21 [drawing 40]	1 to 500	1 to 500	–
COc1ccc2c(c1)[C@H]1C[C@@]1(NC(=O)C(=O)N(C)C)Cn1c-2c(C2CCCCC2)c2ccc(C(=O)NS(=O)(=O)N(C)C)cc21 [drawing 42]	1 to 500	1 to 500	–
COc1ccc2c(c1)[C@@H]1C[C@]1(NC(=O)C(=O)N1C[C@@H](C)O[C@@H](C)C1)Cn1c-2c(C2CCCCC2)c2ccc(C(=O)NS(=O)(=O)N(C)C)cc21 [drawing 43]	1 to 500	1 to 500	–
